# Experiments:
# [1] = cited from earlier work
# [2] = rapid test for determination of the particle surface charge with standard gelatins; format: physicochemical; details: rapid test at pH 4.5, standard type A (IEP 9.5) and type B (IEP 3.5) gelatins, 200 bloom
# Procedure: In a first rapid test it is determined what charge the precipitated particles have. […] If the particles are, for example, negatively charged, a gelatin is picked which is positively charged under the given pH conditions. This rapid test for the determination of the particle charge has the advantages that it can be carried out without a great outlay in terms of apparatus and time. A time-consuming and inaccurate zeta potential measurement can thus be dispensed with entirely.
# At the same dose of the pharmaceutical substance, in the case of the gelatin which is unsuitable in its state of charge a colloidal system will either not form or immediately become unstable or the pharmaceutical substance will flocculate. If the resulting particles are negatively charged, they are stabilized rather by the gelatin solution of Type A, which is positively charged at a pH of 6, than by the solution containing Type B gelatin; in contrast, in this case Type B either will form no colloidal system or the system will immediately destabilize. The flocculation of the particles can be monitored e.g. via a simple turbidity measurement.
# Under identical test conditions, the standard type A gelatin (IEP 9.5/200 bloom) yields a briefly stable nanosol.
# [3] = cited from earlier work; remark: listed apart in the source
SMILES,tmax (time to blood level maximum) ([1]; conventional ibuprofen) [h],time until therapeutic concentrations are achieved ([1]; in 2 of 8 subjects investigated),surface charge of the particles [2],pKa [3]
"CC(C)Cc1ccc(C(C)C(=O)O)cc1 (racemic) [ibuprofen, 2-(4-isobutylphenyl)propionic acid]",1 to 2,more than 4 hours,,
"CC(C(=O)O)c1cccc(C(=O)c2ccccc2)c1 (racemic) [ketoprofen, 2-(3-benzoylphenyl)propionic acid]",,,negative surface charge,5.3

# From patent US5560924A, “Medicament containing a 2-arylpropionic acid derivative in nanosol form and its preparation” (priority 1994, dated 1996)
